According to patent US20230075368A1, “IDENTIFICATION OF AN EGFR-BIN3 PATHWAY THAT ACTIVELY SUPPRESSES INVASION AND REDUCES TUMOR SIZE IN GLIOBLASTOMA” (The United States Govemment as represented by the …, priority 2020, published 2023):

Columns and labels:
GBM12 and GBM22 cells = experiment: Single cell migration assay on nanoplates; type: cell-based, human
Source text: For time-lapse analysis of individual cell movement, nano-ridge constructed of transparent poly(urethane acrylate) (PUA), and fabricated using UV-assisted capillary lithography as described by Kim et al. were used (Kim, D et al. (2009) Mechanosensitivity of fibroblast cell shape and movement to anisotropic substratum topography gradients, Biomaterials 30: 5433-5444; Kim, et al. (2009) Guided Cell Migration on Microtextured Substrates with Variable Local Density and Anisotropy, Adv Funct Mater 19: 1579-1586; Garzon-Muvdi, et al. (2012) Regulation of brain tumor dispersal by NKCC1 through a novel role in focal adhesion regulation, PLoS Biol 10: e1001320). The 24 well NanoSurface plate was purchased from Curi Bio (Seattle, Wash.). Prior to cell seeding, nanoridges surfaces were coated with laminin (3 μg/cm^2, Sigma-Aldrich). Cells were plated at low density (1×10^4 cells/ml) and incubated at 37° C. overnight. The following day, cells were washed with PBS and cultured in DMEM supplemented with 1% FBS and were ready for time-lapse imaging. To measure cell proliferation, 6 hours after plating Histone2B-GFP (C10594, ThermoFisher) was added for nuclear staining overnight. The next day cells were incubated with a mixture of BioTracker® NTP-Transporter Molecule (SCT064, Sigma Aldrich) and Cy3-dUTP (50-190-5459, ThermoFisher) for 10 minutes and then replaced with 1% FBS media containing HB2B2-GFP. For time-lapse imaging, the plate was mounted onto the stage of Andor spinning disk confocal microscope equipped with temperature and CO2 controlling environmental chamber. […] Both fluorescent and bright-field images were taken every 30 minutes for 24 hours using a 10× objective. ImageJ manual track Plugin was used to track the movement of cells frame by frame.
Analysis of individual cellular movement was performed as described elsewhere herein. EGF (50 ng/ml) or vehicle was added 6 hours after the start of time-lapse imaging (n=63 cells). Vehicle was used as a negative control (n=67 cells). Single cell migration speed was calculated using Manual tracking Plugin in ImageJ. […] Cell migration velocity was calculated over a period of 6 hours. […] Analysis of individual cell proliferation was performed as described elsewhere herein. EGF (50 ng/ml) was added 6 hours after the start of time-lapse imaging (n=56). Vehicle was used as a negative control (n=64). Representative static time-lapse Cy3 and H2B-GFP staining images of the same cell before and after addition of EGF are shown in FIG. 25E. […] Each point represents the percentage of Ki positive cells in total 100 cells. […] Cell migration velocity was calculated over a period of 6 hours (n=81). Vehicle was used as a negative control (n=89). […] Scale bar=[…]. Data are represented as media ±5-95% interquartile range (FIG. 25B and FIG. 25K) or mean±SEM (FIG. 25D and FIG. 25M). ***P<0.001, […], n.s. not significant, Mann-Whitney test was used for pair comparison. Two-way ANOVA test was used to analyze Cy3 intensity data in FIG. 25D and FIG. 25M. The results are representative of two independently repeated experiments.
Single-cell migration analysis was performed as described for FIG. 25A above (Vehicle group, n=57, EGF group, n=74). […] Cell migration velocity was calculated over a period of 6 hours. Vehicle was used as a negative control (n=57). […] Analysis of individual cell proliferation was performed as described elsewhere herein. […] Cell migration velocity was calculated over a period of 6 hours. […]

DOCK7 and BIN3 = experiment: Co-immunoprecipitation of BIN3 and DOCK7; type: cell-based, human; settings: 24 hours
Protocol: Cells were treated with 50 ng/ml EGF for 24 hours, BIN3 (sc-514396AC, Santa Cruz Biotechnology) or mouse IgG antibodies were incubated with whole cell lysates overnight at 4° C., and the mixtures were then incubated with 40 μl protein A/G slurry beads (Sigma) for 2 hours at 4° C. Beads were washed three times with lysis buffer, and immunoprecipitates were boiled in loading buffer for 5 min, subjected to SDS-PAGE followed by Coomassie stain. Bands were cut from the gel and submitted for Mass Spectrometry Facility, UTSW, Dallas. To identify BIN3 and DOCK7 complexes in PDXs upon EGF treatment, cell lysates were immunoprecipitated with DOCK7 antibody or BIN3 antibody, and analyzed by Western blot using BIN3 antibody.
Referring to FIG. 9A-S, BIN3 reduces invasion by interacting with DOCK7. Heat map of spectral counts of the top BIN3 interacting proteins identified by mass spectrometry in GBM12 treated with EGF (50 ng/ml) is shown in FIG. 9A. Western blot analysis of immunoprecipitated extracts from EGF-treated GBM12, GBM6, and GBM26 is illustrated in FIG. 9B. Cell lysates from cells treated with EGF (50 ng/ml) or control vehicle for 24 hours were immunoprecipitated by DOCK7 antibody, followed by Western blot for BIN3. Western blot analysis of BIN3 antibody immunoprecipitated extracts from GBM12, GBM6, and GBM26 24 hours after EGF or vehicle treatment is illustrated in FIG. 9C. […]

## C[C@@H]1CCN(C(=O)CC#N)C[C@@H]1N(C)c1ncnc2[nH]ccc12 [tofacitinib]
GBM12 and GBM22 cells; tofacitinib 1 μM, GBM12
  single cell migration: decreased invasion
  single cell proliferation (Cy3): increased proliferation
GBM12 and GBM22 cells; tofacitinib 1 μM, second PDX line (GBM22)
  single cell migration and proliferation: confirmed

## EGF: Recombinant human EGF (AF-100) from Peprotech; EGFR ligand
DOCK7 and BIN3; EGF 50 ng/ml, GBM12, GBM6, GBM26
  physical association between DOCK7 and BIN3: significantly induced a physical association
GBM12 and GBM22 cells; EGF 50 ng/ml, GBM12
  single cell migration: significant slowing of migration
  single cell proliferation (Cy3 linked marker, Ki-67): induces proliferation

## HGF: the ligand for Met
DOCK7 and BIN3; HGF 20 ng/ml, GBM12 and GBM6
  association between BIN3 and DOCK7: not detected
